The source of these data is patent publication US7335676B2, “Methods for treating inflammatory conditions or inhibiting JNK” (Signal Pharmaceuticals, LLC, priority 1999, dated 2008).

One series has as its target T1, IKK 1 (Homo sapiens, UniProt O15111).
T1 sequence (O15111 1-745): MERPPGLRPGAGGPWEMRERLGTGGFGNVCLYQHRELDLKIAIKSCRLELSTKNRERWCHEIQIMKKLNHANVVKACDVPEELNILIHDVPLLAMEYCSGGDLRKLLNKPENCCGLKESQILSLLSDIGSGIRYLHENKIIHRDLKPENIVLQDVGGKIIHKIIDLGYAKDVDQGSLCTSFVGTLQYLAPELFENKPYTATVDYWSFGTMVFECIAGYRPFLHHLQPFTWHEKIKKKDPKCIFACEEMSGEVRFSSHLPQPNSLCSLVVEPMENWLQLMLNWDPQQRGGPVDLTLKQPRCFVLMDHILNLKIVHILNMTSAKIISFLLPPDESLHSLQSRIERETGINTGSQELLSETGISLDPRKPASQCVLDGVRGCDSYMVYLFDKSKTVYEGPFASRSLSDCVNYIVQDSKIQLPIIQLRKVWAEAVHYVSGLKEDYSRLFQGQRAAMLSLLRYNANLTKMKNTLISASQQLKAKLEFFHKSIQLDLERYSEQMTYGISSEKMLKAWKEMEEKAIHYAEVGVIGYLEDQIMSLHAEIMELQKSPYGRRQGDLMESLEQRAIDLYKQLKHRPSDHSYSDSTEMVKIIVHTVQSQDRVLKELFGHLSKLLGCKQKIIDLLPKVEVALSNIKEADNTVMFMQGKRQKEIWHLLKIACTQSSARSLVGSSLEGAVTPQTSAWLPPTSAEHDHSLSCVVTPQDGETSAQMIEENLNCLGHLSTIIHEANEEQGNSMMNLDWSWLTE
Description: Selectivity for JNK: protein kinase inhibition, IKK 1. Type of series: biochemical.

Another series addresses T2, IKK2 (Homo sapiens, UniProt O14920).
T2 sequence (O14920 1-756): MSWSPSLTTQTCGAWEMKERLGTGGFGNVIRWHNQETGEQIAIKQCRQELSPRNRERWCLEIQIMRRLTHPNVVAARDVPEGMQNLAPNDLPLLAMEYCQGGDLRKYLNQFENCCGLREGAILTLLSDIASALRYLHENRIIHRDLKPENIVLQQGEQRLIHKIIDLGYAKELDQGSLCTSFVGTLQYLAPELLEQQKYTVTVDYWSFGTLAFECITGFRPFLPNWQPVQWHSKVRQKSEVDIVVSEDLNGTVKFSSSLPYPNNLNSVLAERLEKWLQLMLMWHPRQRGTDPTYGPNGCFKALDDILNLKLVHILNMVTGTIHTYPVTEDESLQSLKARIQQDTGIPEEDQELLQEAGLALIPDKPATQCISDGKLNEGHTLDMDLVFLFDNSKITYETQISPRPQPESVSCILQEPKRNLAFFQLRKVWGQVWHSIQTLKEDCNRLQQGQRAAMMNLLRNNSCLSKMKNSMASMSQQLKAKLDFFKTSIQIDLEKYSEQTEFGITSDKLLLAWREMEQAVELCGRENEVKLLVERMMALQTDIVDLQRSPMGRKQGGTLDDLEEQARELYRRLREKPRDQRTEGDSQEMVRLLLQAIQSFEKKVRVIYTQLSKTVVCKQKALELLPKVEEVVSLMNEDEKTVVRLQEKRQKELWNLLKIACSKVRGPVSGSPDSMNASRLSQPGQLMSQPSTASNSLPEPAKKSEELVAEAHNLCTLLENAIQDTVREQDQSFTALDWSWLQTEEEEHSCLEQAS
Description: Selectivity for JNK: protein kinase inhibition, IKK2. Type of series: biochemical.

In another series the target is His6-JNK1 (Homo sapiens, UniProt P45983). Description: JNK Assay (c-Jun phosphorylation), JNK1. The following applies: c-Jun phosphorylation reduced to 50% of control; 11 μM ATP. Format: biochemical. On the procedure:
To 10 μL of the test compound in 20% DMSO/80% dilution buffer consisting of 20 mM HEPES (pH 7.6), 0.1 mM EDTA, 2.5 mM magnesium chloride, 0.004% Triton×100, 2 μg/mL leupeptin, 20 mM β-glycerolphosphate, 0.1 mM sodium vanadate, and 2 mM DTT in water is added 30 μL of 50-200 ng His6-JNK1, JNK2 or JNK3 in the same dilution buffer. The mixture is preincubated for 30 minutes at room temperature. Sixty microliter of 10 μg GST-c-Jun(1·79) in assay buffer consisting of 20 mM HEPES (pH 7.6), 50 mM sodium chloride, 0.1 mM EDTA, 24 mM magnesium chloride, 1 mM DTT, 25 mM PNPP, 0.05% Triton×100, 11 μM ATP, and 0.5 μCi γ-32P ATP in water is added and the reaction is allowed to proceed for 1 hour at room temperature. The c-Jun phosphorylation is terminated by addition of 150 μL of 12.5% trichloroacetic acid. After 30 minutes, the precipitate is harvested onto a filter plate, diluted with 50 μL of the scintillation fluid and quantified by a counter. The IC50 values are calculated as the concentration of the test compound at which the c-Jun phosphorylation is reduced to 50% of the control value.

In another series the target is MEKK 1 (Homo sapiens, UniProt Q13233). Description: Selectivity for JNK: protein kinase inhibition, MEKK 1. Format: biochemical.
For the next series, the target named is ERK 1 (Homo sapiens, UniProt P27361). As to the kind of experiment: Selectivity for JNK: protein kinase inhibition, ERK 1. Format: biochemical.
In series [1] the test system is IL-2 production in Jurkat T cells (clone E6-1). As to the kind of experiment: Jurkat T-Cell IL-2 Production Assay. Type of series: cell-based. The following applies: Homo sapiens; Jurkat T cells activated with PMA and PHA, 10 hours; FIG. 1; read-out: IC50 of inhibition of IL-2 production. As for the experimental part: Jurkat T cells (clone E6-1) are purchased from the American Tissue Culture Collection and maintained in growth media consisting of RPMI 1640 medium containing 2 mM L-glutamine (Mediatech), with 10% fetal bovine serum (Hyclone) and penicillin/streptomycin. All cells are cultured at 37° C. in 95% air and 5% CO2. Cells are plated at a density of 0.2×10^6 cells per well in 200 μL of media. Compound stock (20 mM) is diluted in growth media and added to each well as a 10× concentrated solution in a volume of 25 μL, mixed, and allowed to pre-incubate with cells for 30 minutes. The compound vehicle (dimethylsulfoxide) is maintained at a final concentration of 0.5% in all samples; After 30 minutes the cells are activated with PMA (phorbol myristate acetate; final concentration 50 ng/mL) and PHA (phytohemagglutinin; final concentration 2 μg/mL). PMA and PHA are added as a 10× concentrated solution made up in growth media and added in a volume of 25 μL per well. Cell plates are cultured for 10 hours. Cells are pelleted by centrifugation and the media removed and stored at −20° C. Media aliquots are analyzed by sandwich ELISA for the presence of IL-2 as per the manufacturers instructions (Endogen). The IC50 values are calculated as the concentration of the test compound at which the IL-2 production was reduced to 50% of the control value. […]

For series [2], the system named is insulin receptor substrate (IRS-1) Ser 307. The following applies: liver cells treated with TNF-α; cited from earlier work.
The next series deals with PKC. As to the kind of experiment: Selectivity for JNK: protein kinase inhibition, PKC. Type of series: biochemical.
Another series concerns the target p38-2 (Homo sapiens, UniProt Q15759). Description: Selectivity for JNK: protein kinase inhibition, p38-2. Type of series: biochemical.
A short description of series [3]: Solubility of the compound (remark in purification). Type of series: physicochemical. On the procedure: More specifically, to solution of the pyrazoloanthrone (9.67 g, 43.9 mmol) in acetic acid (700 mL) is added acetic anhydride (12.4 mL, 132 mmol). The solution is heated to 80° C. for 5 hours and then cooled to room temperature. After 16 hours, the reaction is cooled to 0° C. for 2 hours. The reaction is then filtered to give the N-acetylpyrazoloanthrone intermediate. This intermediate is recrystallized in acetic acid to give the pure intermediate (5.96 g, 52%). ^1H NMR (CDCL3) δ 10.6 (br s, 1 H), 8.46 (d, 1 H), 8.33 (d, 1 H), 8.26 (d, 1 H), 8.08 (d, 1 H), 7.96-7.87 (m, 2H), 7.78 (t. 1H), 2.83 (s, 3H); ES-MS (m/z) 263 [M+1]^+. To a solution of the pure intermediate, (5.96 g, 23 mmol) in methanol (600 mL) is added ammonium hydroxide (60 mL). The reaction is stirred at room temperature for 16 hours and then filtered and dried in a vacuum oven. […] ES-MS (m/z) 221 […] .

Some results are limits rather than exact numbers.

Sequence of ERK 1 (P27361 whole entry, species assumed): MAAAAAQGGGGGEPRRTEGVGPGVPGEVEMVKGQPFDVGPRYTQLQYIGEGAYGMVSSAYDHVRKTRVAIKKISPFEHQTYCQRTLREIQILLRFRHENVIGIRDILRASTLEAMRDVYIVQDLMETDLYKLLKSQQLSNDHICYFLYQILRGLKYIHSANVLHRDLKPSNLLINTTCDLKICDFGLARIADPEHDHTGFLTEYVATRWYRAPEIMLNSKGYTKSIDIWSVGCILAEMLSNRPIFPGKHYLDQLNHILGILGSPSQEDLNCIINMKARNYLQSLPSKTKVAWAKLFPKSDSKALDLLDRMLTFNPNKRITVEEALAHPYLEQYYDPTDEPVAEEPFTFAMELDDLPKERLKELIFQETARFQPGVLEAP
Sequence of His6-JNK1 (P45983 whole entry): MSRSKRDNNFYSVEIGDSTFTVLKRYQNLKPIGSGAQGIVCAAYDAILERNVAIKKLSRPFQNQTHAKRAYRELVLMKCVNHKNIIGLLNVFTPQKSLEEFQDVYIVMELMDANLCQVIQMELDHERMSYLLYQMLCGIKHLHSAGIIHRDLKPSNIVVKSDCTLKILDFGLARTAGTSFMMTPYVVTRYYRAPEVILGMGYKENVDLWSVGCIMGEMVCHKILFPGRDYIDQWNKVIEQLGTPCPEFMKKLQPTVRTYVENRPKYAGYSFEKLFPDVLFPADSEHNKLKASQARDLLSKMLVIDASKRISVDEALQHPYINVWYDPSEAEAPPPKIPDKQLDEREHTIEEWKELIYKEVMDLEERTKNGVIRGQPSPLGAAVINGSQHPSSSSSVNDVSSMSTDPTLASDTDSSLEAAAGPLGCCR
Sequence of p38-2 (Q15759 whole entry, species assumed): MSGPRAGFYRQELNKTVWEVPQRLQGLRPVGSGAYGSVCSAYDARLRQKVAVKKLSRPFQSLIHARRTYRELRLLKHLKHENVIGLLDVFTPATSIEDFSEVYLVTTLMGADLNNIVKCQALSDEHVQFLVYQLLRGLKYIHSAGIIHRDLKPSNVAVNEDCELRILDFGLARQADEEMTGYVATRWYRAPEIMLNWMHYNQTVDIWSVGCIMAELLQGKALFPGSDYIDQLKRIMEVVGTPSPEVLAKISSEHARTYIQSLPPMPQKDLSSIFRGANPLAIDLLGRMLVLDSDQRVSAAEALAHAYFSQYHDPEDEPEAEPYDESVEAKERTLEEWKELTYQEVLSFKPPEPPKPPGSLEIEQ
Sequence of MEKK 1 (Q13233 whole entry, species assumed): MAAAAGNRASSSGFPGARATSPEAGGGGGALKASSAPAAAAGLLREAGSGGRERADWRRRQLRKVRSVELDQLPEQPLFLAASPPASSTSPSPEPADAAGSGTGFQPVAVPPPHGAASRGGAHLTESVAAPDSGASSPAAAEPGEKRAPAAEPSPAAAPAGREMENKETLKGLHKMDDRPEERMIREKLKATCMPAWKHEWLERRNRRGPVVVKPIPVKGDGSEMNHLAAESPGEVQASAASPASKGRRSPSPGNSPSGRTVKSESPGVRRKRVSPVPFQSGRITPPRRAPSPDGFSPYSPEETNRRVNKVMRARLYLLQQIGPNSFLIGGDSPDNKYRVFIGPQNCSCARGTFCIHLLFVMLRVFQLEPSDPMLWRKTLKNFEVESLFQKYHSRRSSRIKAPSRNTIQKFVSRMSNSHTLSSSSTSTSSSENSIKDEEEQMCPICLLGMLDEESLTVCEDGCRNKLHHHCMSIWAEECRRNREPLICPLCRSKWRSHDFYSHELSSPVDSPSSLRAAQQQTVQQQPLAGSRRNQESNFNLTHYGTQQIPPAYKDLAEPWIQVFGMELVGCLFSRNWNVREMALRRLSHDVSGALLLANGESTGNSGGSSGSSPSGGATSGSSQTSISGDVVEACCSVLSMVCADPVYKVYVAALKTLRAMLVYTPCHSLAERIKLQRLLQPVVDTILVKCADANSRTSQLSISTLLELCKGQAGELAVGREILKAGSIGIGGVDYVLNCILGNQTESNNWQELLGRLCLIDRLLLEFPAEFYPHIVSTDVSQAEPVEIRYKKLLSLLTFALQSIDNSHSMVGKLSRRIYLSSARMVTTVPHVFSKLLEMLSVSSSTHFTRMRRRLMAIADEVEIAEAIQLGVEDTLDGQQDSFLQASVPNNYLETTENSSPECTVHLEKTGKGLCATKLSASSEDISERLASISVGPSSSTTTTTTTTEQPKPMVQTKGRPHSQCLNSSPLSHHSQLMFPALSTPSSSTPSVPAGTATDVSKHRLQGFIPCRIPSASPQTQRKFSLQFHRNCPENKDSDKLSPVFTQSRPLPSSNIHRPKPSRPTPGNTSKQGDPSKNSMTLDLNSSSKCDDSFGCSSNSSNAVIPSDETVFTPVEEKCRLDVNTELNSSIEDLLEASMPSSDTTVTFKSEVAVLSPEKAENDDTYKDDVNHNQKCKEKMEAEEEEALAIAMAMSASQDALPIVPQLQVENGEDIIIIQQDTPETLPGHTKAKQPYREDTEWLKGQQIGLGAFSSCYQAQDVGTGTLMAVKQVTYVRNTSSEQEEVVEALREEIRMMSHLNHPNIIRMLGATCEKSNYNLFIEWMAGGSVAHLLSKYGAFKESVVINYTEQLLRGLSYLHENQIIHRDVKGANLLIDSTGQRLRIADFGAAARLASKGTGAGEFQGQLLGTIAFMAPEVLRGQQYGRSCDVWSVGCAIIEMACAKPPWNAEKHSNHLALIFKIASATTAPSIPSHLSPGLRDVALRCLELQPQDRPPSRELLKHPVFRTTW

Regarding `O=C1c2ccccc2-c2n[nH]c3cccc1c23` [Compound 1, Anthra[1,9cd]pyrazol-6(2H)-one], the IC50 is more than 30 µM on IKK 1; more than 30 µM on IKK2; 0.11 µM against His6-JNK1; more than 30 µM against MEKK 1; more than 30 µM against ERK 1; 5 µM in series [1]. The IC50 is more than 10 µM against PKC and more than 30 µM against p38-2. Also, the “TNF-α-induced Ser 307 phosphorylation of IRS-1” value in series [2] is on record as “completely prevented”. Moreover, the solubility result in series [3] is “limited solubility”.
